# Test system: rat model of chronic gastric ulcer
# Experiment: Rat model of chronic gastric ulcer (anhydrous ethanol followed by aspirin)
# Type: in vivo
# Details: omeprazole 2.6 mg/kg twice daily for 3 days
# Experimental: The function of the small peptides obtained in Embodiment 2 was validated in the present embodiment by using a rat model of chronic gastric ulcer.
# Control group (model group): A rat model of chronic gastric ulcer model was constructed by intragastric administration of anhydrous ethanol (1 mL/200 g), followed by intragastric administration of 200 mg/kg aspirin 2 h later. The rats were administered with aspirin once daily for 4 days. At day 5, the rats were administered with an equal volume of saline.
# Blank group: The rats were administered with an equal volume of saline.
# Drug treatment groups: A rat model of chronic gastric ulcer was constructed as above-mentioned. At day 5, the rats were respectively administered with the rice polypeptide mixture (50 mg/kg), small peptide P1 (0.5 mg/kg), or small peptide P2 (0.5 mg/kg) twice daily for 3 days. On day 4, the rats were sacrificed and their gastric necropsy was performed.
# Positive control group (omeprazole 2.6 mg/kg): A rat model of chronic gastric ulcer was constructed as above. At day 5, the rats were administered with omeprazole (2.6 mg/kg) twice daily for 3 days. On day 4, The rats were sacrificed and their gastric necropsy was performed.
# Each group consisted of 10 rats. After 24 h of modeling, the rats were sacrificed to extract the gastric tissue, for measuring gastric pH, and observing changes in ulcer area via gastric tissue dissection. Liver and kidney tissues were collected for pathological section observation to assess drug safety.
compound,measurement,setting,value
"COc1ccc2[nH]c([S+]([O-])Cc3ncc(C)c(OC)c3C)nc2c1 (centres unmarked) [omeprazole, reference compound]",Ulcer index,"10 rats, ratio of ulcer area to gastric mucosal tissue area, Control group 40.5 ± 5.3",7.2 ± 4.1%
same,Ulcer inhibition rate,percentage reduction in ulcer area compared to the Control group,82.2%

# Reference: patent publication US20260337225A1, “SMALL PEPTIDE AND USE THEREOF IN MUCOSAL REPAIR” (FORREST BIO-PHARM (SHENZHEN) CO., LTD., priority 2022, published 2026)
